Laboratory results reported in ChEMBL document CHEMBL2176914, “Selective histone deacetylase 6 inhibitors bearing substituted urea linkers inhibit melanoma cell growth” (J Med Chem, 2012).
The source made the active and inactive calls. The rule behind the calls is not given here.

How the values were obtained:
B16 [1] = experiment: Inhibition of Class 1 histone deacetylase in mouse B16 cells assessed as increase in histone H3 acetylation at 10 uM incubated for 24 hrs by Western blotting; format: cell-based
B16 [2] = experiment: Growth inhibition of mouse B16 cells incubated for 48 hrs by MTT assay; format: functional; details: for GI50: B16, 48 h
[3] = biological target: T1, Protein deacetylase HDAC6 (Mus musculus) (UniProt Q9Z2V5); experiment: Inhibition of HDAC6 in mouse B16 cells assessed as increase in acetyl alpha-tubulin level incubated for 24 hrs by Western blotting; format: cell-based
T1 sequence (whole entry): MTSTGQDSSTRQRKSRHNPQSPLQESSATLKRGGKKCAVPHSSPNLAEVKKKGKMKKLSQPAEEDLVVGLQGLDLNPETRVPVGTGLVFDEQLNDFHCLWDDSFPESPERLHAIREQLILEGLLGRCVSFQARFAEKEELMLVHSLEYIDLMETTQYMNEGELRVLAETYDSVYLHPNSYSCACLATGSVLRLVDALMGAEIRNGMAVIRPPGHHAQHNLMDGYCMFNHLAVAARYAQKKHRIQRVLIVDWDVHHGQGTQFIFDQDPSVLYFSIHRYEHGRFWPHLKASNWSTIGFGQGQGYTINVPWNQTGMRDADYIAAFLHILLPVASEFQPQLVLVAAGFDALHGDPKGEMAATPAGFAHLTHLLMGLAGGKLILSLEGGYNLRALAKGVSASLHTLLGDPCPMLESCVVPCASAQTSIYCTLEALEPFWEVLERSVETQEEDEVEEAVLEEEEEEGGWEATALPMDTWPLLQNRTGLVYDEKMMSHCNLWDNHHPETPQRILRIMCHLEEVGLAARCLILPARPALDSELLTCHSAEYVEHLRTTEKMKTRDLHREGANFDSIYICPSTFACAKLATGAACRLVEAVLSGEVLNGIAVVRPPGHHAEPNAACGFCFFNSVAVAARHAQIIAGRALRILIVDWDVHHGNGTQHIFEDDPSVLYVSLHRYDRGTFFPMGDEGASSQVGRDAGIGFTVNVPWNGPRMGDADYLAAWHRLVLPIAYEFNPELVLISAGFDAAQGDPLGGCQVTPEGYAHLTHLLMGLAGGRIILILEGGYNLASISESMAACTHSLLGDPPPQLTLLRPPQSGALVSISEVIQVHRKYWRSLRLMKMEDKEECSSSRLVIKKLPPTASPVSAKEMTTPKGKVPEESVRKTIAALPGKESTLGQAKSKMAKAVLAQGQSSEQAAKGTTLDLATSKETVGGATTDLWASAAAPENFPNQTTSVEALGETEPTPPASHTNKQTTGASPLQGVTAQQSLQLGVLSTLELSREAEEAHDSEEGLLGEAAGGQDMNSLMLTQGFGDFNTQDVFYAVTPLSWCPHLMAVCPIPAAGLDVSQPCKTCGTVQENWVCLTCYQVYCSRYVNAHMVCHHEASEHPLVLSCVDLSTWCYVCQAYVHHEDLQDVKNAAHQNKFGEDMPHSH

B16 [4] = experiment: Inhibition of Class 1 histone deacetylase in mouse B16 cells assessed as increase in histone H3 acetylation at 1 to 100 nM incubated for 24 hrs by Western blotting; format: cell-based
B16 [5] = experiment: Inhibition of Class 1 histone deacetylase in mouse B16 cells assessed as increase in histone H3 acetylation at 1 uM incubated for 24 hrs by Western blotting; format: cell-based
Homo sapiens = organism: Homo sapiens; experiment: Selectivity index, ratio of IC50 for human recombinant HDAC1 to IC50 for human recombinant HDAC6

Question: Which results are given for CCCCN(Cc1ccc(C(=O)NO)cc1)C(=O)Nc1ccccc1?
Answer: inhibition (B16 [1]): Active; growth inhibition (GI) (B16 [2]): Dose-dependent effect; inhibition [3]: Dose-dependent effect; inhibition (B16 [4]): inactive; inhibition (B16 [5]): Active

Question: Which Ratio IC50 (Homo sapiens) does the source give for COc1ccccc1NC(=O)NCc1ccc(C(=O)NO)cc1 here?
Answer: 2

Question: With CCN(C(=O)NCc1ccc(C(=O)NO)cc1)c1ccccc1 as the compound, how does the Ratio IC50 (Homo sapiens) read?
Answer: 330

Question: What about the “growth inhibition (GI)” value (B16 [2]) of the same compound?
Answer: Dose-dependent effect

Question: What about the GI50 (B16 [2]) of the same compound?
Answer: > 100 µM

Question: Which results are given for COCCCN(Cc1ccc(C(=O)NO)cc1)C(=O)Nc1ccccc1?
Answer: Ratio IC50 (Homo sapiens): 443; growth inhibition (GI) (B16 [2]): Dose-dependent effect; GI50 (B16 [2]): 22.2 µM

Question: With COCCN(Cc1ccc(C(=O)NO)cc1)C(=O)Nc1ccccc1 as the compound, how does the Ratio IC50 (Homo sapiens) read?
Answer: 243

Question: And the “growth inhibition (GI)” value (B16 [2])?
Answer: Dose-dependent effect

Question: How did the “growth inhibition (GI)” value (B16 [2]) turn out when CN1CCc2c(c3ccccc3n2Cc2ccc(C(=O)NO)cc2)C1 [TUBASTATIN A] was run?
Answer: Dose-dependent effect

Question: What about the GI50 (B16 [2]) of the same compound?
Answer: 40.5 µM

Question: How did the Ratio IC50 (Homo sapiens) turn out when O=C(NO)c1ccc(CN(CCc2ccccc2)C(=O)Nc2ccccc2)cc1 was run?
Answer: 222

Question: And the “growth inhibition (GI)” value (B16 [2])?
Answer: Dose-dependent effect

Question: And the GI50 (B16 [2])?
Answer: 15.4 µM

Question: For COc1ccccc1NC(=O)N(CCc1c[nH]c2ccccc12)Cc1ccc(C(=O)NO)cc1, which Ratio IC50 (Homo sapiens) is on record?
Answer: 19

Question: What about the “growth inhibition (GI)” value (B16 [2]) of the same compound?
Answer: Dose-dependent effect

Question: And the GI50 (B16 [2])?
Answer: 30.4 µM

Question: Which “growth inhibition (GI)” value (B16 [2]) does the source give for Cc1[nH]c2ccccc2c1CCNCc1ccc(/C=C/C(=O)NO)cc1 [PANOBINOSTAT] here?
Answer: Dose-dependent effect

Question: What about the GI50 (B16 [2]) of the same compound?
Answer: 0.15 µM

Question: Which Ratio IC50 (Homo sapiens) does the source give for CCCCN(C(=O)NCc1ccc(C(=O)NO)cc1)c1ccccc1 here?
Answer: 322

Question: And the “growth inhibition (GI)” value (B16 [2])?
Answer: Dose-dependent effect

Question: And the GI50 (B16 [2])?
Answer: 65.8 µM

Question: Which Ratio IC50 (Homo sapiens) does the source give for COc1ccccc1NC(=O)N(CCCO)Cc1ccc(C(=O)NO)cc1 here?
Answer: 803

Question: What about the “growth inhibition (GI)” value (B16 [2]) of the same compound?
Answer: Dose-dependent effect

Question: What about the GI50 (B16 [2]) of the same compound?
Answer: > 100 µM

Question: How did the Ratio IC50 (Homo sapiens) turn out when COc1ccccc1NC(=O)N(CCCN(C)C)Cc1ccc(C(=O)NO)cc1 was run?
Answer: 6

Question: And the “growth inhibition (GI)” value (B16 [2])?
Answer: Dose-dependent effect

Question: And the GI50 (B16 [2])?
Answer: 75.3 µM

Question: COCCCN(C(=O)NCc1ccc(C(=O)NO)cc1)c1ccccc1 was tested. Which Ratio IC50 (Homo sapiens) did it give?
Answer: 226

Question: And the “growth inhibition (GI)” value (B16 [2])?
Answer: Dose-dependent effect

Question: And the GI50 (B16 [2])?
Answer: > 100 µM

Question: What does the source list for COc1ccccc1NC(=O)N(CCc1ccc(O)cc1)Cc1ccc(C(=O)NO)cc1?
Answer: Ratio IC50 (Homo sapiens): 292; growth inhibition (GI) (B16 [2]): Dose-dependent effect; GI50 (B16 [2]): 18.4 µM
